Tests used:
[1] = tested on: mice; parameters: method as in ref 33 = [33]; PMID 32150414; doi:10.1021/acs.jmedchem.9b02080; 33. Abás S. Rodríguez-Arévalo S. Bagán A. Griñán-Ferré C. Vasilopoulou F. Brocos-Mosquera I. Muguruza C. Pérez B. Molins E. Luque F.J. Bicyclic α-Iminophosphonates as High Affinity Imidazoline I 2 Rec; conditions: repeated administration of 20 mg/kg for 5 days; cited from earlier work
[2] = Metabolic stability in mouse liver microsomes; conditions: for % compound remaining: MLM
Experimental: The final concentration assay was 1
NADPH in 100 mM potassium phosphate buffer.
Spectrometer, Metabolite Pilot V 1.5 Software.
Method: Ionization mode, electrospray positive; adquisition mode, TOF MS with IDA MS/MS; column, Atlantis T3 C18, 2.1 x 15 mm, 3 μm; mobile phase, wa te r: acetonitrile: 0.1%: formic acid; flow rate, 0.3 mL/min; source temperature, 550 °C; column temperature, 25 °C; injection volume, 5 […]
concentration 1 mg/mL, NADPH 1.3 mM.
Table S5. Summary of LC‐MS conditions […]

[3] = Metabolic stability in human liver microsomes; type: in vitro ADME; conditions: HLM
Experimental: In the assay, the reaction was initiated by adding HLM (1 mg/mL) to an equal volume of buffer solution containing the test compound and cofactors at the proper concentrations. Reactions without NADPH were also incubated to rule out non-NADPH metabolism or chemical instability in the incubation buffer. Verapamil was included as a positive control to monitor incubation course. All reactions were terminated using 60 µL of ice-cold acetonitrile at 0, 5, 15, 30, 45, and 60 min. The plates were centrifugated at 3500 rpm for 15 min. All experiments were conducted in triplicate. Samples were monitored for B06 disappearance by LC-MS in MRM mode according to a quantitation method for B06. […]
concentration 1 μM, protein concentration 1 mg/mL, NADPH, 1.3 mM. Potassium phosphate buffer (100 mM) pH 7.4 and human liver microsomes, were purchased from Beckton Dickinson. […]
needed for the study was Beckman Coulter Refrigerated centrifuge, Agilent 1290 Infinity Liquid Chromatograph, CTC Analytics PAL HT‐xt injector, Api4000 Mass Spectrometer. Total incubation […]
Analysis: For the data analysis the area ratio of analyzed versus internal standard was used to calculate the percentage of remaning compound at each incubation time. The natural logarithm of […]
the following equation: Half‐life (T1/2) (min) = 0.693/k (the slope of the natural log of the percent remaining versus time). Intrinsic clearance was determined by the following equation: Clint H = Ln 2/t1/2 (min) x volume incubation (mL)/microsomal protein (mg) x 45 (MPPGL) 1500 g human liver/ 70 Kg human body weight. Units for CLint are usually expressed as mL/min/mg microsomal protein, MPPGL = referred to as mg microsomal protein per gram liver.
Table S1. Summary of LC‐MS conditions
Table S2. Percentage of verapamil remaining at each incubation time […]

[4] = tested on: mice; assay: Toxicity observation during the PK study; type: in vivo, mouse; conditions: single dose 10 mg/kg intraperitoneally
Experimental: Thus, two-month-old mice were treated with a single dose of 10 mg/kg intraperitoneally in ten groups (n = 3), for consecutive times: 0, 5, 15, 30 min and 1, 2, 4, 6, 8, 24 h. After treatment, mice were euthanized, and the plasma and brain were collected.

[5] = tested on: SH-SY5Y cells; assay: Protection of SH-SY5Y cells from 6-OHDA-induced death (MTT); conditions: 6-OHDA 25 μM 16 h
[6] = Stability in mouse plasma; type: in vitro ADME; conditions: 10 µM, 37 °C
Experimental: The assessment of the plasma stability avoids misleading in vitro data and complex interpretation of the in vivo PK. […] Then, centrifugation led to a supernatant that was analysed for sample quantification.
Mouse plasma pooled from healthy donors extracted in citrate tubes was employed in the assay. […] Then, 100 µL of acetonitrile was added to precipitate the plasma protein, and the plate was centrifuged at 46,000× g for 60 min at 5 °C. Supernatant was taken and analysed by UPLC/MS/MS for sample quantification. The stationary phase was a reverse phase Acquity UPLC®BEH C18 1.7 µm (2.1 × 50 mm) (Waters), and the mobile phase was 0.1% formic acid in water/0.1% formic acid in acetonitrile, using a gradient and flow rate of 0.6 mL/min. The chromatographic equipment employed was an UPLC QSM Waters Acquity, and the compound concentrations were calculated from the MS peak areas.

[7] = tested on: SH-SY5Y cells; assay: Active caspase 3 in 6-OHDA-treated SH-SY5Y cells (immunodetection, Western blot); conditions: 1 μM, 16 h after 6-OHDA

SMILES: CCOP(=O)(OCC)[C@]1(c2ccccc2)N=C[C@H]2C(=O)N(c3ccc(F)c(Cl)c3)C(=O)[C@H]21 (racemic) [B06, diethyl (1RS,3aSR,6aSR)-5-(3-chloro-4-fluorophenyl)-4,6-dioxo-1-phenyl-1,3a,4,5,6,6a-hexahydropyrrolo[3,4-c]pyrrole-1-phosphonate]
- effect on body temperature [1]: hypothermia
- % compound remaining ([2]; minus NADPH, 0 min): 105.00 ± 23.97%
- % compound remaining ([2]; minus NADPH, 60 min): 83.20 ± 2.87%
- % compound remaining ([2]; plus NADPH, 0 min): 100.00 ± 25.58%
- % compound remaining ([2]; plus NADPH, 5 min): 135.00 ± 7.06%
- % compound remaining ([2]; plus NADPH, 15 min): 67.50 ± 4.15%
- % compound remaining ([2]; plus NADPH, 30 min): 30.30 ± 5.28%
- % compound remaining ([2]; plus NADPH, 45 min): 15.20 ± 1.98%
- % compound remaining ([2]; plus NADPH, 60 min): 6.08 ± 0.01%
- half-life at 1 μM ([2]; mouse, microsomes): 16.2 min
- hepatic clearance category ([3]; classification bands low/medium/high): medium clearance
- % compound remaining ([3]; minus NADPH, 0 min): 103.2 ± 13.82%
- % compound remaining ([3]; minus NADPH, 60 min): 75.30 ± 1.27%
- % compound remaining ([3]; plus NADPH, 0 min): 100.00 ± 14.46%
- % compound remaining ([3]; plus NADPH, 5 min): 98.60 ± 9.11%
- % compound remaining ([3]; plus NADPH, 15 min): 77.90 ± 13.20%
- % compound remaining ([3]; plus NADPH, 30 min): 54.10 ± 6.84%
- % compound remaining ([3]; plus NADPH, 45 min): 41.3 ± 5.83%
- % compound remaining ([3]; plus NADPH, 60 min): 29.40 ± 3.69%
- half-life at 1 μM ([3]; human, human liver microsomes, pH 7.4, 1 µM, 1 mg/mL protein): 28.4 min
- toxicity in organs or tissues, de visu observation after euthanasia [4]: no toxicity in organs or tissues
- toxicity in the animals ([4]; up to 24 h): not toxicity in any of the animals
- protection from 6-OHDA-induced cell death ([5]; 1 μM, 1 h pre-treatment): significantly rescued human dopaminergic cells from 6-OHDA-induced apoptosis
- lowest concentration at which the most beneficial effect was obtained ([5]; dose-response, MTT): 1 µM
- remaining percentage in mouse plasma ([6]; 0 min): 100%
- remaining percentage in mouse plasma ([6]; 10 min): 100%
- remaining percentage in mouse plasma ([6]; 20 min): 69.7%
- remaining percentage in mouse plasma ([6]; 40 min): 48.3%
- remaining percentage in mouse plasma ([6]; 60 min): 21.6%
- effect on 6-OHDA-induced increase of cells expressing active caspase 3 [7]: this effect was reversed by the treatment with B06
